Experimental findings from patent US20160287589A1, “SUBSTITUTED-IMIDAZOPYRIDAZINES” (BAYER PHARMA AKTIENGESELLSCHAFT, priority 2013, published 2016) are described below.

SMILES strings stand for the structures.

For experiment [1], the target named is T1, MKNK1 (Homo sapiens, UniProt Q9BUB5, T385D).
T1 construct: GST (N); purchased Carna Biosciences 02-145; host or cells: insect cells (baculovirus expression system)
The experiment is described as follows: MKNK1 kinase assay (MKNK1 TR-FRET assay). It counts as biochemical. Conditions: 10 μM ATP, 15 min preincubation.

Experiment [2] addresses T1, MKNK1. The experiment is described as follows: MKNK1 kinase high ATP assay (TR-FRET-based). The format is biochemical. The following applies: 2 mM ATP, 15 min preincubation. An outline of the steps: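 GST-tagged full-length human MKNK1 (aa 1-424, T344D) from insect cells, preincubated with compound 15 min at 22 °C. Reaction 30 min at 22 °C with 2 mM ATP and 0.06 μM biotinylated peptide in HEPES pH 7.5, Mg2+, DTT. Phosphopeptide detected by TR-FRET (665/622 ratio) with anti-pS6 (pSer236) antibody; normalised to no-inhibitor and no-enzyme controls.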
(In general: TR-FRET usually uses a lanthanide donor and a delayed reading to cut background.)

T1 sequence (Q9BUB5 1-424 isoform Q9BUB5-2 T344D): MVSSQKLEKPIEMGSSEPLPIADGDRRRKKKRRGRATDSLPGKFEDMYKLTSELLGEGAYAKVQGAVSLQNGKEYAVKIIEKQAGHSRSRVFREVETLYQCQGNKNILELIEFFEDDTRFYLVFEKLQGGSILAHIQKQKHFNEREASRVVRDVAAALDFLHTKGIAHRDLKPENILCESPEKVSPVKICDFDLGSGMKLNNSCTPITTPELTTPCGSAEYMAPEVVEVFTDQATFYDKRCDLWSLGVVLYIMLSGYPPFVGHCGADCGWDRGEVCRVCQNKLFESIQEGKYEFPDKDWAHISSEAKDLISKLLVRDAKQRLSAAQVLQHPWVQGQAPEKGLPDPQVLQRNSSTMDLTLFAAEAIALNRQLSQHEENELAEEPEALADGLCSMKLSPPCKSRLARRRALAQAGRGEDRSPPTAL

For orientation: IC50 means the concentration needed to halve the response being measured. `C[C@H]1COCCN1c1cccc2oc(-c3cnc4ccc(O[C@H]5C[C@H](N)C5)nn34)cc12` [II-34, trans-3-[(3-{4-[(3S)-3-methylmorpholin-4-yl]-1-benzofuran-2-yl}imidazo[1,2-b]pyridazin-6-yl)oxy]cyclobutanamine]: the IC50 against MKNK1 [1] (Table 1b) came out at 26.7 nM; against MKNK1 [2] (Table 2b), 43.2 nM.
Taken in the same sequence, the figures for `C[C@H]1CNCCN1c1cccc2oc(-c3cnc4ccc(OCCCS(C)(=O)=O)nn34)cc12` [II-58, 3-{4-[(2S)-2-methylpiperazin-1-yl]-1-benzofuran-2-yl}-6-[3-(methylsulfonyl)propoxy]im-idazo[1,2-b]pyridazine] were 2.6 nM and 1.4 nM.
Turning to `COc1nccc2oc(-c3cnc4ccc(OC[C@@H]5CCC(=O)N5)nn34)cc12` [IV-3, (5S)-5-({[3-(4-Methoxyfuro[3,2-c]pyridin-2-yl)imidazo[1,2-b]pyridazin-6-yl]-oxy}methyl)pyrrolidin-2-one], the values for the IC50 against MKNK1 [1] (Table 1d) and at MKNK1 [2] (Table 2d) were 10 nM and 28 nM, respectively.
With `COC[C@H]1CCCN1c1nccc2oc(-c3cnc4ccc(OC[C@H](C)N)nn34)cc12` [III-24, (2S)-1-[(3-{4-[(2R)-2-(Methoxymethyl)pyrrolidin-1-yl]furo[3,2-c]pyridin-2-yl}imidazo[1,2-b]pyridazin-6-yl)oxy]propan-2-amine], the IC50 against MKNK1 [1] (Table 1c) came out at 0.4 nM; against MKNK1 [2] (Table 2c) it was 8.6 nM.
Consider `COC[C@H]1CCCN1c1cccc2oc(-c3cnc4ccc(OC)nn34)cc12` [II-10, 6-Methoxy-3-{4-[(2R)-2-(methoxymethyl)pyrrolidin-1-yl]-1-benzofuran-2-yl}-imidazo[1,2-b]pyridazine], for which the IC50 at MKNK1 [1] (Table 1b) was 6.5 nM; at MKNK1 [2] (Table 2b) it was 5 nM.
Take `C[C@@H]1CN(c2nccc3oc(-c4cnc5ccc(OC[C@@H]6CCC(=O)N6)nn45)cc23)CCO1` [III-125, (5S)-5-{[(3-{4-[(2R)-2-methylmorpholin-4-yl]furo[3,2-c]pyridin-2-yl}imidazo[1,2-b]pyridazin-6-yl)oxy]methyl}pyrrolidin-2-one]: the figures for the IC50 against MKNK1 [1] (Table 1c) and on MKNK1 [2] (Table 2c) were 7.4 nM and 7.1 nM, respectively.
`C[C@@H]1CN(c2nccc3oc(-c4cnc5ccc(OC[C@H]6CCC(=O)N6)nn45)cc23)CCO1` [III-118, (5R)-5-{[(3-{4-[(2R)-2-methylmorpholin-4-yl]furo[3,2-c]pyridin-2-yl}imidazo[1,2-b]pyridazin-6-yl)oxy]methyl}pyrrolidin-2-one]: the figures for the IC50 against MKNK1 [1] (Table 1c) and against MKNK1 [2] (Table 2c) were 2.5 nM and 1 nM, respectively.
The corresponding values for `CN1CCC(N(C)c2nccc3oc(-c4cnc5ccc(OC[C@H]6CCC(=O)N6)nn45)cc23)CC1` [III-65, (5R)-5-{[(3-{4-[Methyl(1-methylpiperidin-4-yl)amino]furo[3,2-c]pyridin-2-yl}imidazo[1,2-b]pyridazin-6-yl)oxy]methyl}pyrrolidin-2-one] are 11.6 nM and 19.9 nM.
In the case of `C[C@@H](N)COc1ccc2ncc(-c3cc4c(N5CCOC(C)(C)C5)cccc4o3)n2n1` [II-35, (2R)-1-({3-[4-(2,2-dimethylmorpholin-4-yl)-1-benzofuran-2-yl]imidazo[1,2-b]pyridazin-6-yl}oxy)propan-2-amine], the IC50 against MKNK1 [1] (Table 1b) turned out to be 16.7 nM; against MKNK1 [2] (Table 2b) it was 49.6 nM.
For `CCN(CCOC(C)(C)C)c1nccc2oc(-c3cnc4ccc(O[C@H]5C[C@H](N)C5)nn34)cc12` [III-108, 2-{6-[(trans-3-Aminocyclobutyl)oxy]imidazo[1,2-b]pyridazin-3-yl}-N-(2-tert-butoxyethyl)-N-ethylfuro[3,2-c]pyridin-4-amine], the IC50 at MKNK1 [1] (Table 1c) came to 1.9 nM; on MKNK1 [2] (Table 2c), 0.5 nM.
Taken in the same sequence, the figures for `CCN(CCOC)c1nccc2oc(-c3cnc4ccc(OC[C@@H]5CNCC(=O)N5)nn34)cc12` [III-113, (6S)-6-{[(3-{4-[Ethyl(2-methoxyethyl)amino]furo[3,2-c]pyridin-2-yl}imidazo[1,2-b]pyridazin-6-yl)oxy]methyl}piperazin-2-one] were 0.5 nM and 0.3 nM.
Taken in the same sequence, the figures for `C[C@H](N)COc1ccc2ncc(-c3cc4c(N5CC[C@H](N(C)C)C5)nccc4o3)n2n1` [III-115, (3S)-1-[2-(6-{[(2S)-2-aminopropyl]oxy}imidazo [1,2-b]pyridazin-3-yl)furo[3,2-c]pyridin-4-yl]-N,N-dimethylpyrrolidin-3-amine] were 18.6 nM and 84.1 nM.
For `COC[C@H]1CCCN1c1cccc2oc(-c3cnc4ccc(O[C@H]5C[C@H](N)C5)nn34)cc12` [II-11, trans-3-[(3-{4-[(2R)-2-(Methoxymethyl)pyrrolidin-1-yl]-1-benzofuran-2-yl}imidazo[1,2-b]pyridazin-6-yl)oxy]cyclobutanamine], the IC50 against MKNK1 [1] (Table 1b) came to 2.4 nM; on MKNK1 [2] (Table 2b) it was 3.5 nM.
As to `Cc1nocc1C(=O)N1CCC[C@H]1CCOc1ccc2ncc(-c3cc4ccccc4o3)n2n1` [Example I-52, [(2S)-2-(2-{[3-(1-Benzofuran-2-yl)imidazo[1,2-b]-pyridazin-6-yl]oxy}ethyl)pyrrolidin-1-yl](3-methyl-1,2-oxazol-4-yl)methanone], the IC50 against MKNK1 [1] (Table 1a) is 1.7 nM; at MKNK1 [2] (Table 2a), 3.4 nM.
For the compound `O=C1CC[C@H](COc2ccc3ncc(-c4cc5c(N6CCOCC6)nccc5o4)n3n2)N1` [III-68, (5R)-5-[({3-[4-(Morpholin-4-yl)furo[3,2-c]pyridin-2-yl]imidazo[1,2-b]pyridazin-6-yl}oxy)methyl]pyrrolidin-2-one], the 50% inhibitory concentration (IC50) is 0.5 nM on MKNK1 [1] (Table 1c) and 0.7 nM at MKNK1 [2] (Table 2c).
The corresponding values for `O=C1CC[C@H](COc2ccc3ncc(-c4cc5c(N6CCN(c7ccccc7)CC6)nccc5o4)n3n2)N1` [III-76, (5R)-5-[({3-[4-(4-Phenylpiperazin-1-yl)furo[3,2-c]pyridin-2-yl]imidazo[1,2-b]pyridazin-6-yl}oxy)methyl]pyrrolidin-2-one] are 3.5 nM and 6 nM.
On to `COC[C@H]1CCCN1c1cccc2oc(-c3cnc4ccc(OCCCS(C)(=O)=NC#N)nn34)cc12` (mixture of isomers) [II-25, [{3-[(3-{4-[2-(Methoxymethyl)pyrrolidin-1-yl]-1-benzofuran-2-yl}imidazo-[1,2-b]pyridazin-6-yl)oxy]propyl}(methyl)oxido-λ^6-sulfanylidene]cyanamide], for which the IC50 at MKNK1 [1] (Table 1b) turned out to be 2.4 nM; against MKNK1 [2] (Table 2b) it was 2.7 nM.
Regarding `CC(=O)NC[C@H](Oc1ccc2ncc(-c3cc4ccccc4o3)n2n1)c1cccnc1` [Example I-35, N-[(2R)-2-{[3-(1-Benzofuran-2-yl)imidazo[1,2-b]pyridazin-6-yl]oxy}-2-(pyridin-3-yl)ethyl]acetamide], the concentration for half-maximal inhibition (IC50) at MKNK1 [1] (Table 1a) turned out to be 17.9 nM; at MKNK1 [2] (Table 2a) it was 47.8 nM.
In the case of `N[C@H]1C[C@H](Oc2ccc3ncc(-c4cc5c(N6CCC[C@@H]6CO)nccc5o4)n3n2)C1` [III-102, [(2R)-1-(2-{6-[(trans-3-Aminocyclobutyl)oxy]imidazo[1,2-b]pyridazin-3-yl}furo[3,2-c]pyridin-4-yl)pyrrolidin-2-yl]methanol], the IC50 on MKNK1 [1] (Table 1c) turned out to be 6.8 nM; against MKNK1 [2] (Table 2c) it was 31.2 nM.
For the compound `O=C(c1ccc(Cl)cc1)N1CCC[C@H]1CCOc1ccc2ncc(-c3cc4ccccc4o3)n2n1` [Example I-63, [(2S)-2-(2-{[3-(1-Benzofuran-2-yl)imidazo[1,2-b]-pyridazin-6-yl]oxy}ethyl)pyrrolidin-1-yl](4-chlorophenyl)methanone], the IC50 was found to be 4 nM against MKNK1 [1] (Table 1a) and 10.1 nM at MKNK1 [2] (Table 2a).
Regarding `CCN(CCOC)c1nccc2oc(-c3cnc4ccc(O[C@H]5C[C@H](N)C5)nn34)cc12` [III-101, 2-{6-[(trans-3-Aminocyclobutyl)oxy]imidazo[1,2-b]pyridazin-3-yl}-N-ethyl-N-(2-methoxyethyl)furo[3,2-c]pyridin-4-amine], the results for the IC50 at MKNK1 [1] (Table 1c) and at MKNK1 [2] (Table 2c) were 0.8 nM and 1.2 nM, respectively.
Take `O=C1NC(COc2ccc3ncc(-c4cc5ccccc5o4)n3n2)CO1` (stereo not shown) [Example I-4, 4-({[3-(1-Benzofuran-2-yl)imidazo[1,2-b]pyridazin-6-yl]oxy}methyl)-1,3-oxazolidin-2-one]: the figures for the IC50 against MKNK1 [1] (Table 1a) and against MKNK1 [2] (Table 2a) were 5.6 nM and 8.8 nM, respectively.
Taken in the same sequence, the figures for `O=C1CNC[C@@H](COc2ccc3ncc(-c4cc5ccccc5o4)n3n2)N1` [Example I-29, (6S)-6-({[3-(1-Benzofuran-2-yl)imidazo[1,2-b]pyridazin-6-yl]oxy}methyl)-piperazin-2-one] were 13.1 nM and 34.1 nM.
For `CN(C)C1CCN(c2nccc3oc(-c4cnc5ccc(OCCCS(C)(=O)=O)nn45)cc23)CC1` [III-55, N,N-Dimethyl-1-(2-{6-[3-(methylsulfonyl)propoxy]imidazo[1,2-b]pyridazin-3-yl}furo[3,2-c]pyridin-4-yl)piperidin-4-amine], the results for the IC50 at MKNK1 [1] (Table 1c) and on MKNK1 [2] (Table 2c) were 3.7 nM and 7.8 nM, respectively.
For the compound `C[C@H](N)COc1ccc2ncc(-c3cc4c(N5CC[C@@H](N(C)C)C5)nccc4o3)n2n1` [III-11, (3R)-1-[2-(6-{[(2S)-2-Aminopropyl]oxy}imidazo[1,2-b]pyridazin-3-yl)furo[3,2-c]pyridin-4-yl]-N,N-dimethylpyrrolidin-3-amine], the IC50 at MKNK1 [1] (Table 1c) is 2.7 nM; on MKNK1 [2] (Table 2c), 12.4 nM.
Taken in the same sequence, the figures for `CS(=O)(=O)CCCOc1ccc2ncc(-c3cc4c(N5CCCCC5)nccc4o3)n2n1` [III-45, 6-[3-(methylsulfonyl)propoxy]-3-[4-(piperidin-1-yl)furo[3,2-c]pyridin-2-yl]imidazo[1,2-b]pyridazine] were 4.4 nM and 8.1 nM.
